The subject of data set [1] is MCF7. Description: Antiproliferative activity against human MCF7 cells assessed as inhibition of cell growth at 50 uM by MTT assay relative to control. It counts as functional. Background: Formazan colour is commonly taken as a measure of viable cells.
The subject of data set [2] is HepG2. Description: Antiproliferative activity against human HepG2 cells assessed as inhibition of cell growth by MTT assay.
Data set [3] can be described thus: Cytotoxicity in human MCF-10A cells assessed as inhibition of cell growth by MTT assay. It counts as toxicity, cell-based.
Data set [4] relates to HCT-116. Description: Antiproliferative activity against human HCT-116 cells assessed as inhibition of cell growth by MTT assay.
For data set [5], the system named is MCF7. The data set can be described thus: cells. The note with it: Homo sapiens, MCF7, 24 h.
Description: Antiproliferative activity against human MCF7 cells assessed as inhibition of cell growth incubated for 24 hrs by MTT assay
Data set [6] can be described thus: Cytotoxicity in HaCaT cells assessed as inhibition of cell growth by MTT assay. To be noted: human. It counts as toxicity, cell-based.
Data set [7] concerns MDA-MB-231. The data set can be described thus: cells. To be noted: Homo sapiens, MDA-MB-231, 24 h.
Description: Antiproliferative activity against human MDA-MB-231 cells assessed as inhibition of cell growth incubated for 24 hrs by MTT assay
The target of data set [8] is Nuclear receptor subfamily 4immunitygroup A member 1 (Homo sapiens, UniProt P22736). The data set can be described thus: Binding affinity to Nur77 LB domain (unknown origin) assessed as dissociation constant up to 100 uM by fluorescence titration assay.
Nuclear receptor subfamily 4immunitygroup A member 1, sequence (P22736 whole entry, the tested form may be a part): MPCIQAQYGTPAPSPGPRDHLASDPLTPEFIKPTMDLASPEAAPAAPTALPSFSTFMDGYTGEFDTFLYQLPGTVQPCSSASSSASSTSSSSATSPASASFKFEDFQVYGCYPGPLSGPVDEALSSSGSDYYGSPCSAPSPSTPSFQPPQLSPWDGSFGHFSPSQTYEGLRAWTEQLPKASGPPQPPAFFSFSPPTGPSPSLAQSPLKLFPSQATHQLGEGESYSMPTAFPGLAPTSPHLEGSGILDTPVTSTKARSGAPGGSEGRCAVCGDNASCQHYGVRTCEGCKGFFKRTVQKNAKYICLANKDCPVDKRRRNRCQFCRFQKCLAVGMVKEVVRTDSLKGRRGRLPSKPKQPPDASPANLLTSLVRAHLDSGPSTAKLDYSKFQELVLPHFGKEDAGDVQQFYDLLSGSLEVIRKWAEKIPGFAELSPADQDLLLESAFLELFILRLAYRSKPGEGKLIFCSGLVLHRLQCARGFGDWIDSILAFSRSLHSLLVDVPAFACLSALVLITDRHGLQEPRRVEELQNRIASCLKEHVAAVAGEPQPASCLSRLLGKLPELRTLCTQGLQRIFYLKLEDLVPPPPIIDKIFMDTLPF
For data set [9], the system named is T47D. Description: cells. To be noted: Homo sapiens, 24 h.
Description: Antiproliferative activity against human T47D cells assessed as inhibition of cell growth incubated for 24 hrs by MTT assay

A value given as a limit tells only on which side of the number the result lay.

For orientation: inhibition means the relative decrease from the control value, in per cent. Regarding `Cc1ccc(/C=N/NC(=O)c2cccc3ncccc23)cc1`, in data set [1], the inhibition at 50 µM was 60.5%. As to `COc1ccc(/C=N/NC(=O)c2ccc(NC(=O)Nc3cccc4ncccc34)cc2)cc1`, the inhibition at 50 µM in [1] came out at 72.3%. Turning to `O=C(N/N=C/c1cccs1)c1cccc2ncccc12`, the inhibition at 50 µM in data set [1] stood at 45.7%. In the case of `O=C(Nc1ccc(C(=O)N/N=C/c2ccnc3ccccc23)cc1)Nc1ccc2ncccc2c1`, the inhibition at 50 µM in [1] came to 1.11%. Still for that read-out and setting: the figure for `O=C(N/N=C/c1ccccc1)c1ccc2ncccc2c1` is 64.9%; for `Cc1ccc(F)cc1/C=N/NC(=O)c1ccc2ncccc2c1` it is 73.5%. The same measure, in the same setting: the figure for `O=C(N/N=C/c1cccs1)c1ccc2ncccc2c1` is 64.9%; for `Cc1cccc(/C=N/NC(=O)c2ccc3ncccc3c2)c1` it is 50.1%.

With `O=C(N/N=C/c1cc(Cl)ccc1Cl)c1ccc2ncccc2c1`, the inhibition at 50 µM in [1] was 64.7%. On the same count and under the same terms, the result for `O=C(Nc1ccc(C(=O)N/N=C/c2cc(Cl)nc3ccccc23)cc1)Nc1ccc2ncccc2c1` reads 65.4%. Broadly, the IC50 is the midpoint of a concentration-inhibition curve. Consider `O=C(Nc1ccc(C(=O)N/N=C/c2cccc(Cl)c2)cc1)Nc1cccc2ncccc12`, for which the IC50 in data set [2] was 15.6 µM; in data set [3], above 50 µM; in data set [4], 10.7 µM; in data set [5], 11.4 µM; in [6] it was above 50 µM. For the same molecule, in data set [1], the inhibition at 50 µM came out at 76.2%. With `O=C(Nc1ccc(C(=O)N/N=C/c2ccc(F)cc2F)cc1)Nc1ccc2ncccc2c1`, the inhibition at 50 µM in data set [1] turned out to be 23.2%. On the same count and under the same terms, the figure for `O=C(N/N=C/c1ccc(F)cc1)c1ccc2ncccc2c1` is 60.1%.

Take `CC/C(=C(\c1ccccc1)c1ccc(OCCN(C)C)cc1)c1ccccc1` [TAMOXIFEN]: the IC50 in data set [7] was found to be 20.8 µM; in data set [5], 7.68 µM. Regarding `COc1ccc(/C=N/NC(=O)c2ccc(NC(=O)Nc3ccc4ncccc4c3)cc2)cc1`, the inhibition at 50 µM in data set [1] amounted to 37.7%.

Consider `O=C(N/N=C/c1ccc(Cl)cc1)c1ccc2ncccc2c1`, for which the IC50 in data set [2] is 13.9 µM; in data set [3], above 50 µM; in data set [4], 22.9 µM; in data set [5], 17.4 µM; in data set [6] it was above 50 µM. For the same molecule, in data set [1], the inhibition at 50 µM stood at 79%. Turning to `O=C(N/N=C/c1cc(Cl)nc2ccccc12)c1ccc2ncccc2c1`, the inhibition at 50 µM in [1] was 44.1%. Same read-out and setting: the result for `O=C(Nc1ccc(C(=O)N/N=C/c2ccco2)cc1)Nc1ccc2ncccc2c1` reads 56.2%. On to `COc1ccc(/C=N/NC(=O)c2ccc(NC(=O)Nc3ccc4ncccc4c3)cc2)c(O)c1`, for which the inhibition at 50 µM in data set [1] came out at 1.01%. For orientation: Kd means the equilibrium constant for the complex coming apart. Turning to `CCCCCCCC(=O)c1c(O)cc(O)cc1CC(=O)OCC` [CYTOSPORONE B], the Kd in data set [8] amounted to 15.3 µM. In the case of `COc1ccc(/C=N/NC(=O)c2ccc3ncccc3c2)cc1`, the inhibition at 50 µM in data set [1] came to 66.2%. `O=C(N/N=C/c1cccc(Cl)c1)c1cccc2ncccc12`: the inhibition at 50 µM in [1] was determined as 56.9%. As for `O=C(N/N=C/c1ccc([N+](=O)[O-])cc1)c1ccc2ncccc2c1`, in data set [1], the inhibition at 50 µM turned out to be 63.2%. On the same count and under the same terms, the result for `COc1ccc(/C=N/NC(=O)c2ccc3ncccc3c2)c(O)c1` reads 71.2%. For `O=C(Nc1ccc(C(=O)N/N=C/c2cc(Cl)ccc2Cl)cc1)Nc1ccc2ncccc2c1`, the IC50 in data set [9] is 8.71 µM; in data set [2], 9.25 µM; in data set [3], above 50 µM; in [4], 8.24 µM; in data set [5] it was 4.77 µM; in data set [6] it was 40.1 µM. Moreover, the inhibition at 50 µM in [1] was 75.7%. Take `COc1cccc(/C=N/NC(=O)c2ccc(NC(=O)Nc3ccc4ncccc4c3)cc2)c1`: in data set [1], the inhibition at 50 µM stood at 1.99%. The same measure, in the same setting: the figure for `O=C(N/N=C/c1ccco1)c1ccc2ncccc2c1` is 41.8%.

On to `CCC/C=N/NC(=O)c1ccc2ncccc2c1`, for which the inhibition at 50 µM in data set [1] is 65.1%. Same read-out and setting: the result for `CCC/C=N/NC(=O)c1ccc(NC(=O)Nc2ccc3ncccc3c2)cc1` reads 46.6%; that for `O=C(Nc1ccc(C(=O)N/N=C/c2ccc(Cl)cc2Cl)cc1)Nc1cccc2ncccc12`, 74.6%; that for `O=C(N/N=C/c1ccccc1)c1cccc2ncccc12`, 69.3%.

As for `Cc1cc(C)cc(/C=N/NC(=O)c2cccc3ncccc23)c1`, the inhibition at 50 µM in data set [1] came out at 68.5%. The same measure, in the same setting: the figure for `O=C(Nc1ccc(C(=O)N/N=C/c2ccc(F)cc2F)cc1)Nc1cccc2ncccc12` is 73.3%; for `O=C(Nc1ccc(C(=O)N/N=C/c2cccs2)cc1)Nc1ccc2ncccc2c1` it is 15.1%. Take `CCOc1ccccc1-n1c(C(C)N2CCN(C(=O)COc3ccc(Cl)cc3)CC2)nc2ccccc2c1=O` (stereo not given) [ERASTIN]: the IC50 in data set [2] is above 30 µM; in data set [4], above 30 µM; in [5], 20.2 µM. Take `Cc1cccc(/C=N/NC(=O)c2ccc(NC(=O)Nc3cccc4ncccc34)cc2)c1`: the inhibition at 50 µM in data set [1] amounted to 68.6%. Still for that read-out and setting: the result for `Cc1cc(C)cc(/C=N/NC(=O)c2ccc3ncccc3c2)c1` reads 55.2%. As to `Cc1ccc(/C=N/NC(=O)c2ccc3ncccc3c2)cc1`, the IC50 in [2] was found to be 28.1 µM; in data set [3] it was 40.6 µM; in data set [4], 25.3 µM; in [5] it was 22.3 µM; in data set [6] it was 39.6 µM. For the same molecule, the inhibition at 50 µM in data set [1] was 76.8%. With `COc1ccc(/C=N/NC(=O)c2cccc3ncccc23)cc1`, in [1], the inhibition at 50 µM amounted to 67.9%. Still for that read-out and setting: the figure for `O=C(Nc1ccc(C(=O)N/N=C/c2c[nH]c3ccccc23)cc1)Nc1cccc2ncccc12` is 30.2%.

`COc1cccc(/C=N/NC(=O)c2ccc(NC(=O)Nc3cccc4ncccc34)cc2)c1`: in data set [1], the inhibition at 50 µM stood at 59%. Take `Cc1ccccc1/C=N/NC(=O)c1cccc2ncccc12`: the inhibition at 50 µM in data set [1] is 65.3%. The same measure, in the same setting: the figure for `O=C(N/N=C/c1ccco1)c1cccc2ncccc12` is 50.9%; for `Cc1cccc(/C=N/NC(=O)c2ccc(NC(=O)Nc3ccc4ncccc4c3)cc2)c1` it is 68.2%; for `O=C(Nc1ccc(C(=O)N/N=C/c2ccc(Cl)cc2)cc1)Nc1cccc2ncccc12` it is 53.4%.

For `O=C(Nc1ccc(C(=O)N/N=C/c2ccc(Cl)cc2Cl)cc1)Nc1ccc2ncccc2c1`, the inhibition at 50 µM in data set [1] amounted to 70.2%.

In the case of `O=C(N/N=C/c1ccnc2ccccc12)c1ccc2ncccc2c1`, in data set [1], the inhibition at 50 µM stood at 55.3%. The same measure, in the same setting: the result for `O=C(Nc1ccc(C(=O)N/N=C/c2ccc(Cl)cc2)cc1)Nc1ccc2ncccc2c1` reads 66.4%. The same measure, in the same setting: the result for `CC(C)c1ccc(/C=N/NC(=O)c2ccc(NC(=O)Nc3cccc4ncccc34)cc2)cc1` reads 65.9%; that for `Cc1ccc(F)cc1/C=N/NC(=O)c1ccc(NC(=O)Nc2cccc3ncccc23)cc1`, 68.3%. For the molecule `O=C(N/N=C/c1ccc(F)cc1F)c1ccc2ncccc2c1`, in [1], the inhibition at 50 µM came out at 70.8%. Take `CCC/C=N/NC(=O)c1cccc2ncccc12`: the IC50 was 2.75 µM in data set [2]; 39.5 µM in data set [3]; 2.19 µM in data set [4]; 6.83 µM in data set [5]; 45.7 µM in data set [6]. For the same molecule, the inhibition at 50 µM in data set [1] worked out at 79.2%. As to `O=C(O)c1ccc(/C=N/NC(=O)c2ccc3ncccc3c2)cc1`, in data set [1], the inhibition at 50 µM worked out at 48%. On the same count and under the same terms, the figure for `COc1cc(/C=N/NC(=O)c2ccc(NC(=O)Nc3ccc4ncccc4c3)cc2)cc(OC)c1` is 56.4%; for `COc1ccc(/C=N/NC(=O)c2ccc(NC(=O)Nc3ccc4ncccc4c3)cc2)cc1OC` it is 1.26%; for `Cc1cc(C)cc(/C=N/NC(=O)c2ccc(NC(=O)Nc3ccc4ncccc4c3)cc2)c1` it is 19%.

Source of the values: ChEMBL document CHEMBL6182894, “Design, synthesis, and biological evaluation of quinolinyl-ureido-phenyl-hydrazide derivatives and quinolinyl-hydrazide derivatives as anticancer agents targeting Nur77-mediated ferroptosis” (Eur J Med Chem, 2025).
